Values quoted from earlier work in patent US11026907B2, “Azelaic acid gel, preparation method and application thereof” (CHENGDU JOY YOUNG BIOTECHNOLOGY CO., LTD., priority 2018, dated 2021).
Read-outs that look alike come from different tables or passages of the source.

## O=C(O)CCCCCCCC(=O)O [Azelaic acid]
In cold water, ether and benzene
  Solubility: slightly soluble
In hot water, alcohol and some polyols
  Solubility: soluble
